In paper PMC12578881, “Pan-cancer Myc modulator that targets Myc-α-tubulin interaction to drive selective mitotic catastrophe” (Scientific Reports, 2025):

Legend:
[1] = target: T1, c-Myc Micro-Tag (Myc-MicroTag) (Homo sapiens, UniProt P01106); experiment: Micro-Tag thermal-shift target engagement (enzyme complementation); assay type: biochemical
T1 construct: 15-residue Micro-Tag at C-terminus; transiently expressed in HEK293; Triton X-100 lysate

[2] = target: T2, recombinant Myc protein (full length c-Myc) (Homo sapiens, UniProt P01106); experiment: competitive fluorescence polarization against 10074-G5; assay type: binding; conditions: 10 µM Myc, 10 µM 10074-G5, DL78 20-60 µM, 30 min room temperature; site unproven, competitive or allosteric
T2 construct: full length recombinant protein, gift of A. Chinnaiyan
T2 sequence (P01106 whole entry): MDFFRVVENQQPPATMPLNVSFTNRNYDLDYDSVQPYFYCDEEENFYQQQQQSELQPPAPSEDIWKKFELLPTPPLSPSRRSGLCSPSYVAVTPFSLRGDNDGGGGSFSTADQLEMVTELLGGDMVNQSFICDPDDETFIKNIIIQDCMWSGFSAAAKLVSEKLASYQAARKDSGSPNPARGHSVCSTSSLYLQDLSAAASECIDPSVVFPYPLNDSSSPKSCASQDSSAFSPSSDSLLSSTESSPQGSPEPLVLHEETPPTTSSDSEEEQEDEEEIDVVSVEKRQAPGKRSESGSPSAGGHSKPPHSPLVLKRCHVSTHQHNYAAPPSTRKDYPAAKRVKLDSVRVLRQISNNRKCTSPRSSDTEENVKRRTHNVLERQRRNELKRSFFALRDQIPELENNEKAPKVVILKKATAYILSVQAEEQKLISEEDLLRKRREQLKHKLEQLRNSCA

T1 sequence (P01106 whole entry): as above

EC50 [1]: 1800 nM
SMILES: COc1ccc2oc(C(=O)c3c(C)oc4ccc(OC)cc34)cc2c1 [DL78, (5-methoxy-2-methylbenzofuran-3-yl)(5-methoxybenzofuran-2-yl)methanone]
competitive fluorescence polarization against 10074-G5 [2]: DL78 competed with 10074-G5 in a dose dependent manner
